Results: PubChem BioAssay AID2060606 (Molecular Pharmacology Branch, DTP, NCI, 2025)
pIC50: −log10 of the molar value.

Tested on: 922993-354-T-J3-PDC complex spheroids, viability, % test/control
Assay: Anticancer human tumor 922993-354-T-J3-PDC patient-derived endometrial carcinoma cell line growth inhibition [CLK]
Details: for pIC50: curve of first compound; for viability, T/C: stronger effect = lower value
Summary of the method: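 Multi-cell-type spheroids combined patient-derived tumor cells with HUVEC endothelial cells and human mesenchymal stem cells. Paired agents were dosed in half-log steps down from about clinical Cmax, or from 10 microM where Cmax was unknown.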

[1] = second compound 0.0316 µM, first compound 0.00316 µM
[2] = second compound 0.0316 µM, first compound 0.01 µM
[3] = second compound 0.0316 µM, first compound 0.0316 µM
[4] = second compound 0.0316 µM, first compound 0.1 µM
[5] = second compound 0.0316 µM, first compound 0.316 µM
[6] = second compound 0.0316 µM, first compound 1 µM
[7] = second compound 0.1 µM, first compound 0.00316 µM
[8] = second compound 0.1 µM, first compound 0.01 µM
[9] = second compound 0.1 µM, first compound 0.0316 µM
[10] = second compound 0.1 µM, first compound 0.1 µM
[11] = second compound 0.1 µM, first compound 0.316 µM
[12] = second compound 0.1 µM, first compound 1 µM
[13] = second compound 0.316 µM, first compound 0.00316 µM
[14] = second compound 0.316 µM, first compound 0.01 µM
[15] = second compound 0.316 µM, first compound 0.0316 µM
[16] = second compound 0.316 µM, first compound 0.1 µM
[17] = second compound 0.316 µM, first compound 0.316 µM
[18] = second compound 0.316 µM, first compound 1 µM
[19] = second compound 1 µM, first compound 0.00316 µM
[20] = second compound 1 µM, first compound 0.01 µM
[21] = second compound 1 µM, first compound 0.0316 µM
[22] = second compound 1 µM, first compound 0.1 µM
[23] = second compound 1 µM, first compound 0.316 µM
[24] = second compound 1 µM, first compound 1 µM
[25] = second compound 3.16 µM, first compound 0.00316 µM
[26] = second compound 3.16 µM, first compound 0.01 µM
[27] = second compound 3.16 µM, first compound 0.0316 µM
[28] = second compound 3.16 µM, first compound 0.1 µM
[29] = second compound 3.16 µM, first compound 0.316 µM
[30] = second compound 3.16 µM, first compound 1 µM
[31] = second compound 10 µM, first compound 0.00316 µM
[32] = second compound 10 µM, first compound 0.01 µM
[33] = second compound 10 µM, first compound 0.0316 µM
[34] = second compound 10 µM, first compound 0.1 µM
[35] = second compound 10 µM, first compound 0.316 µM
[36] = second compound 10 µM, first compound 1 µM
[37] = second compound 0.0316 µM, first compound 3.16 µM
[38] = second compound 0.0316 µM, first compound 10 µM
[39] = second compound 0.1 µM, first compound 3.16 µM
[40] = second compound 0.1 µM, first compound 10 µM
[41] = second compound 0.316 µM, first compound 3.16 µM
[42] = second compound 0.316 µM, first compound 10 µM
[43] = second compound 1 µM, first compound 3.16 µM
[44] = second compound 1 µM, first compound 10 µM
[45] = second compound 3.16 µM, first compound 3.16 µM
[46] = second compound 3.16 µM, first compound 10 µM
[47] = second compound 10 µM, first compound 3.16 µM
[48] = second compound 10 µM, first compound 10 µM
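Note: spheroids exposed to the agents for 7 days before readout.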

CCc1c2c(nc3ccc(O)cc13)-c1cc3c(c(=O)n1C2)COC(=O)[C@]3(O)CC + CN1CCN(c2cc(C(=O)Nc3cc4cc(-c5cnn(C)c5)ccc4cn3)ccn2)CC1
pIC50 (second compound 0.0316 µM): 7.78
pIC50 (second compound 0.1 µM): 7.82
pIC50 (second compound 0.316 µM): > 8.50
pIC50 (second compound 1 µM): > 8.50
pIC50 (second compound 3.16 µM): > 8.50
pIC50 (second compound 10 µM): > 8.50
viability, T/C [1]: 96.4%
viability, T/C [2]: 75.1%
viability, T/C [3]: 16.3%
viability, T/C [4]: 16.1%
viability, T/C [5]: 16.8%
viability, T/C [6]: 24.9%
viability, T/C [7]: 84.3%
viability, T/C [8]: 66.9%
viability, T/C [9]: 14.1%
viability, T/C [10]: 18.8%
viability, T/C [11]: 16.2%
viability, T/C [12]: 32.3%
viability, T/C [13]: 27.2%
viability, T/C [14]: 19.2%
viability, T/C [15]: 9.9%
viability, T/C [16]: 9.85%
viability, T/C [17]: 18.8%
viability, T/C [18]: 15.8%
viability, T/C [19]: 0.1%
viability, T/C [20]: 0.13%
viability, T/C [21]: 1.37%
viability, T/C [22]: 0.07%
viability, T/C [23]: 0.87%
viability, T/C [24]: 0.33%
viability, T/C [25]: 0.08%
viability, T/C [26]: 0.17%
viability, T/C [27]: 0.99%
viability, T/C [28]: 1.34%
viability, T/C [29]: 1%
viability, T/C [30]: 2.82%
viability, T/C [31]: 0.12%
viability, T/C [32]: 0.14%
viability, T/C [33]: 0.83%
viability, T/C [34]: 0.18%
viability, T/C [35]: 0.59%
viability, T/C [36]: 2.79%

Cn1ncnc1[C@H]1c2n[nH]c(=O)c3cc(F)cc(c23)N[C@@H]1c1ccc(F)cc1 + CN1CCN(c2cc(C(=O)Nc3cc4cc(-c5cnn(C)c5)ccc4cn3)ccn2)CC1
pIC50 (second compound 0.0316 µM): < 7.00
pIC50 (second compound 0.1 µM): < 7.00
pIC50 (second compound 0.316 µM): > 9.50
pIC50 (second compound 1 µM): > 9.50
pIC50 (second compound 3.16 µM): > 9.50
pIC50 (second compound 10 µM): > 9.50
viability, T/C (second compound 0.0316 µM, first compound 0.000316 µM): 126%
viability, T/C (second compound 0.0316 µM, first compound 0.001 µM): 121%
viability, T/C [1]: 104%
viability, T/C [2]: 119%
viability, T/C [3]: 119%
viability, T/C [4]: 75.3%
viability, T/C (second compound 0.1 µM, first compound 0.000316 µM): 110%
viability, T/C (second compound 0.1 µM, first compound 0.001 µM): 101%
viability, T/C [7]: 102%
viability, T/C [8]: 103%
viability, T/C [9]: 116%
viability, T/C [10]: 75.3%
viability, T/C (second compound 0.316 µM, first compound 0.000316 µM): 43.1%
viability, T/C (second compound 0.316 µM, first compound 0.001 µM): 35.2%
viability, T/C [13]: 41.5%
viability, T/C [14]: 32.7%
viability, T/C [15]: 35.6%
viability, T/C [16]: 20.4%
viability, T/C (second compound 1 µM, first compound 0.000316 µM): 0.13%
viability, T/C (second compound 1 µM, first compound 0.001 µM): 0.83%
viability, T/C [19]: 0.12%
viability, T/C [20]: 0.32%
viability, T/C [21]: 0.11%
viability, T/C [22]: 0.89%
viability, T/C (second compound 3.16 µM, first compound 0.000316 µM): 0.12%
viability, T/C (second compound 3.16 µM, first compound 0.001 µM): 1.22%
viability, T/C [25]: 0.35%
viability, T/C [26]: 0.07%
viability, T/C [27]: 0.95%
viability, T/C [28]: 1.3%
viability, T/C (second compound 10 µM, first compound 0.000316 µM): 0.13%
viability, T/C (second compound 10 µM, first compound 0.001 µM): 0.16%
viability, T/C [31]: 0.88%
viability, T/C [32]: 0.13%
viability, T/C [33]: 1.94%
viability, T/C [34]: 2.55%

Nc1ccn(C2OC(CO)C(O)C2(F)F)c(=O)n1 (stereo not given) + CN1CCN(c2cc(C(=O)Nc3cc4cc(-c5cnn(C)c5)ccc4cn3)ccn2)CC1
pIC50 (second compound 0.0316 µM): > 7.50
pIC50 (second compound 0.1 µM): > 7.50
pIC50 (second compound 0.316 µM): > 7.50
pIC50 (second compound 1 µM): > 7.50
pIC50 (second compound 3.16 µM): > 7.50
pIC50 (second compound 10 µM): > 7.50
viability, T/C [3]: 20.2%
viability, T/C [4]: 13.4%
viability, T/C [5]: 16.6%
viability, T/C [6]: 15.9%
viability, T/C [37]: 16.6%
viability, T/C [38]: 17.2%
viability, T/C [9]: 23.5%
viability, T/C [10]: 16.3%
viability, T/C [11]: 15.7%
viability, T/C [12]: 17.2%
viability, T/C [39]: 16.9%
viability, T/C [40]: 18.4%
viability, T/C [15]: 14%
viability, T/C [16]: 11.3%
viability, T/C [17]: 10.3%
viability, T/C [18]: 11.6%
viability, T/C [41]: 12.5%
viability, T/C [42]: 11.5%
viability, T/C [21]: 0.1%
viability, T/C [22]: 0.12%
viability, T/C [23]: 0.13%
viability, T/C [24]: 0.06%
viability, T/C [43]: 1.89%
viability, T/C [44]: 0.07%
viability, T/C [27]: 0.11%
viability, T/C [28]: 2.53%
viability, T/C [29]: 1.37%
viability, T/C [30]: 0.13%
viability, T/C [45]: 0.85%
viability, T/C [46]: 2.45%
viability, T/C [33]: 0.16%
viability, T/C [34]: 1.71%
viability, T/C [35]: 1.82%
viability, T/C [36]: 0.17%
viability, T/C [47]: 0.67%
viability, T/C [48]: 1.33%

O=C(c1cc(Cc2n[nH]c(=O)c3ccccc23)ccc1F)N1CCN(C(=O)C2CC2)CC1 + CN1CCN(c2cc(C(=O)Nc3cc4cc(-c5cnn(C)c5)ccc4cn3)ccn2)CC1
pIC50 (second compound 0.0316 µM): < 5.00
pIC50 (second compound 0.1 µM): < 5.00
pIC50 (second compound 0.316 µM): > 7.50
pIC50 (second compound 1 µM): > 7.50
pIC50 (second compound 3.16 µM): > 7.50
pIC50 (second compound 10 µM): > 7.50
viability, T/C [3]: 118%
viability, T/C [4]: 106%
viability, T/C [5]: 108%
viability, T/C [6]: 117%
viability, T/C [37]: 93.5%
viability, T/C [38]: 97%
viability, T/C [9]: 92.1%
viability, T/C [10]: 98.6%
viability, T/C [11]: 95.8%
viability, T/C [12]: 87%
viability, T/C [39]: 84.6%
viability, T/C [40]: 84.8%
viability, T/C [15]: 44.1%
viability, T/C [16]: 32%
viability, T/C [17]: 24.3%
viability, T/C [18]: 33%
viability, T/C [41]: 39.1%
viability, T/C [42]: 32.2%
viability, T/C [21]: 0.1%
viability, T/C [22]: 0.12%
viability, T/C [23]: 1.56%
viability, T/C [24]: 0.08%
viability, T/C [43]: 1.32%
viability, T/C [44]: 1.97%
viability, T/C [27]: 0.08%
viability, T/C [28]: 0.63%
viability, T/C [29]: 0.57%
viability, T/C [30]: 0.11%
viability, T/C [45]: 1.25%
viability, T/C [46]: 1.13%
viability, T/C [33]: 0.12%
viability, T/C [34]: 1.28%
viability, T/C [35]: 2.09%
viability, T/C [36]: 1.28%
viability, T/C [47]: 0.42%
viability, T/C [48]: 2.31%

O=c1[nH]cc(F)c(=O)[nH]1 + CN1CCN(c2cc(C(=O)Nc3cc4cc(-c5cnn(C)c5)ccc4cn3)ccn2)CC1
pIC50 (second compound 0.0316 µM): 5.10
pIC50 (second compound 0.1 µM): 5.36
pIC50 (second compound 0.316 µM): > 7.50
pIC50 (second compound 1 µM): > 7.50
pIC50 (second compound 3.16 µM): > 7.50
pIC50 (second compound 10 µM): > 7.50
viability, T/C [3]: 104%
viability, T/C [4]: 99.5%
viability, T/C [5]: 95.2%
viability, T/C [6]: 114%
viability, T/C [37]: 65.6%
viability, T/C [38]: 46.1%
viability, T/C [9]: 102%
viability, T/C [10]: 87.2%
viability, T/C [11]: 94.1%
viability, T/C [12]: 80.5%
viability, T/C [39]: 54.2%
viability, T/C [40]: 38.9%
viability, T/C [15]: 34.3%
viability, T/C [16]: 34.3%
viability, T/C [17]: 33.3%
viability, T/C [18]: 31.3%
viability, T/C [41]: 38%
viability, T/C [42]: 24.6%
viability, T/C [21]: 0.11%
viability, T/C [22]: 0.38%
viability, T/C [23]: 0.11%
viability, T/C [24]: 0.78%
viability, T/C [43]: 1.96%
viability, T/C [44]: 1.27%
viability, T/C [27]: 0.09%
viability, T/C [28]: 0.09%
viability, T/C [29]: 1.19%
viability, T/C [30]: 0.76%
viability, T/C [45]: 0.73%
viability, T/C [46]: 2.29%
viability, T/C [33]: 0.09%
viability, T/C [34]: 0.11%
viability, T/C [35]: 0.93%
viability, T/C [36]: 0.13%
viability, T/C [47]: 2.73%
viability, T/C [48]: 2.68%
